{"source": "patent US20240210412A1", "about": "“SULFONYL-TRIAZOLE COMPOUNDS USEFUL AS LIGANDS AND INHIBITORS OF PROSTAGLANDIN REDUCTASE 2” (University of Virginia Patent Foundation, priority 2021, published 2024)", "key": {"Q14157": {"biological_target": "T1, Q14157 (Homo sapiens, UniProt Q14157)", "T1 construct": "performing SuTEx compound screening directly in cells; endogenous in cells; host or cells: DM93 cells (SILAC), soluble fraction", "T1 sequence (Q14157 1-1087)": "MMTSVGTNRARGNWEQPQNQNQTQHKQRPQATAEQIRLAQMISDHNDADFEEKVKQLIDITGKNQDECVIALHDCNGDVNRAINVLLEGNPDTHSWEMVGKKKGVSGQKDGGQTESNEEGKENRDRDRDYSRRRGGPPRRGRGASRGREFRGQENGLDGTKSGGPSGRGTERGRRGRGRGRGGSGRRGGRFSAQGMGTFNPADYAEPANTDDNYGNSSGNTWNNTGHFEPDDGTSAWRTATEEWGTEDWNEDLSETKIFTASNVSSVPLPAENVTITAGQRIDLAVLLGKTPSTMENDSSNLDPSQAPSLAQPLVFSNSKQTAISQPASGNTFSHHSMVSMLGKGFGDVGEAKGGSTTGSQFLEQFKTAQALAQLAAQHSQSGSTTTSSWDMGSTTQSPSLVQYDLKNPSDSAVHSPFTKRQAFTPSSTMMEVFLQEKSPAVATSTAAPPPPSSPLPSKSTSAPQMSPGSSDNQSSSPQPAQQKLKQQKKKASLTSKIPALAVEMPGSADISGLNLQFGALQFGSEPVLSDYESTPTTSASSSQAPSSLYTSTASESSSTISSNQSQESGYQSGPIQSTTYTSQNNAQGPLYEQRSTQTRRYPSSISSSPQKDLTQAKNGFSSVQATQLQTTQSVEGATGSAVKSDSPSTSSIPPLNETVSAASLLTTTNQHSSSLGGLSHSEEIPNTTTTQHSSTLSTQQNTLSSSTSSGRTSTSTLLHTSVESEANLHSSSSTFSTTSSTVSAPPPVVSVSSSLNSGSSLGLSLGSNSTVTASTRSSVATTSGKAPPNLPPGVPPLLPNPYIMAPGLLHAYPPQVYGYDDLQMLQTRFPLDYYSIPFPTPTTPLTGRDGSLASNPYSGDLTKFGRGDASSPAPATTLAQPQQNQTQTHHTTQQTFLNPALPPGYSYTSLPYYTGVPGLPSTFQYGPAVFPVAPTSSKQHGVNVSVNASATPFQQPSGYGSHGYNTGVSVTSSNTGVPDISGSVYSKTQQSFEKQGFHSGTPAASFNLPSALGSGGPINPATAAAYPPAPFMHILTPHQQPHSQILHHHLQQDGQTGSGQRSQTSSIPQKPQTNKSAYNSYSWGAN", "experiment": "SILAC LC-MS ABPP", "assay_type": "cell-based", "details": "25 μM 2 h, live DM93 cells", "experimental": "(§1) Cells were grown to 90-95% confluence before being washed once with warm, sterile DPBS (1×, 5 mL), followed by addition of 10 mL of serum-free media (supplemented with 1% L-glutamine) containing either DMSO or SuTEx fragment (in DMSO) was added. Light cells were treated with DMSO vehicle while the heavy cells were treated with DMSO or SuTEx fragment (in DMSO) and incubated for 2 hrs. After 2 hrs, the cells were treated with SuTEx alkyne probe (HHS475, 10 μL of 1000× DMSO stock) and incubated for an additional 2 hrs. The media was aspirated and cells washed with cold PBS (5 mL) and harvested. Cells were spun at 500×g for 5 min at 4° C. followed by removal of supernatant. Pellets were resuspended in 1 mL of cold DPBS and spun at 1,400×g for 3 min at 4° C. followed by removal of supernatant. The cells were lysed in PBS by sonication and fractionated (100,000×g, 45 min, 4° C.).The light and heavy soluble fractions were diluted to 2.3 mg/mL in PBS and 432 μL were used for analysis (1 mg total protein). The probe-modified proteomes were conjugated to desthiobiotin-PEG3-azide (10 μl of 10 mM stock in DMSO; 200 μM final concentration) using TCEP (10 μl of fresh 50 mM stock in water, 1 mM final concentration), TBTA ligand (33 μl of a 1.7 mM 4:1 t-butanol/DMSO stock, 100 μM final concentration) and CuSO4 (10 μl of 50 mM stock, 1 mM final concentration). Samples were vortexed to mix and incubated for 1 hr at room temperature. The heavy and light proteomes were mixed 1:1 and the subsequent steps, including LC-MS/MS data analysis, were performed as previously described^[8a].\n(§2) Coupling cell-based screens with chemical proteomics can facilitate the identification of target protein and binding sites that engage and are irreversibly modified by covalent ligands^[12]. In these assays, covalent ligands block SuTEx activity-based probe (ABP) labeling at protein sites, and the competition of probe labeling can be used to quantify potency and selectivity across the proteome^[10a]. To facilitate quantitative chemical proteomics, DM93 melanoma cells were cultured using stable isotopic labeling by amino acids in cell culture (SILAC)^[13]. Cells cultured in “light” media were treated with dimethyl sulfoxide (DMSO) vehicle while cells cultured in “heavy” media were treated with SuTEx ligand (25 μM, 2 hours, 37° C.). Next, cells were treated with HHS-475 probe (100 μM, 2 hours, 37° C.) followed by lysis and processing of proteomes for analysis. Probe-modified proteins from the soluble fraction were conjugated to a desthiobiotin-azide tag by copper-catalyzed azide-alkyne cycloaddition (CuAAC)^[14] followed by mixing of the light and heavy proteomes. The combined proteomes were digested with trypsin protease to produce probe-modified peptides, followed by enrichment and purification by avidin affinity chromatography. Probe-modified peptides were resolved, identified, and quantified by high-resolution liquid chromatography-tandem mass spectrometry (LC-MS/MS). Resultant data were analyzed as previously described^[8a, 10a]. Table 2, below, lists sites of modification targeted by sulfonyl-triazole compounds HHS-0101, HHS-0201, HHS-0301, HHS-0401, and HHS-0701. The format of the table is as follows: protein Uniprot accession number (see uniprot.org); tyrosine site (amino acid position) modified; treatment (sulfonyl-triazole compound identification number, followed by Y (where if multiple compounds modify the same site, the compounds are separated by vertical lines)."}, "Q96AT1": {"biological_target": "T2, Q96AT1 (Homo sapiens, UniProt Q96AT1)", "T2 construct": "endogenous in cells; host or cells: DM93 cells (SILAC), treated live; soluble proteome analysed", "T2 sequence (Q96AT1 whole entry)": "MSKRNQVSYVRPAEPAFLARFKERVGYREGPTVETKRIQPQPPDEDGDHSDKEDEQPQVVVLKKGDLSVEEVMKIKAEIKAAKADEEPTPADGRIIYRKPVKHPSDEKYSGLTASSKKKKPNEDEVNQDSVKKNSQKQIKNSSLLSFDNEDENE", "experiment": "SILAC LC-MS ABPP", "assay_type": "cell-based", "details": "25 μM 2 h, live DM93 cells", "experimental": "as §1, §2"}}, "data": [{"smiles": "O=C(NCC1CC1)c1ccc(S(=O)(=O)n2cncn2)cc1", "note": "[HHS-0201, 4-((1H-1,2,4-triazol-1-yl)sulfonyl)-N-(cyclopropylmethyl)benzamide]", "values": [{"measurement": "liganded tyrosine site 204", "setting": "Q14157", "result": "HHS0201.Y (tyrosine sites that showed >80% reductions (SR >5) in probe labeling in cells treated with compounds (liganded sites))"}, {"measurement": "liganded tyrosine site 214", "setting": "Q14157", "result": "HHS0201.Y (tyrosine sites that showed >80% reductions (SR >5) in probe labeling in cells treated with compounds (liganded sites))"}]}, {"smiles": "O=C(NCc1ccccc1)c1ccc(S(=O)(=O)n2cncn2)cc1", "note": "[HHS-0401, 4-((1H-1,2,4-triazol-1-yl)sulfonyl)-N-benzylbenzamide]", "values": [{"measurement": "liganded tyrosine site 803", "setting": "Q14157", "result": "HHS0401.Y (tyrosine sites that showed >80% reductions (SR >5) in probe labeling in cells treated with compounds (liganded sites))"}, {"measurement": "liganded tyrosine site 109", "setting": "Q96AT1", "result": "HHS0401.Y (tyrosine sites that showed >80% reductions (SR >5) in probe labeling in cells treated with compounds (liganded sites))"}]}, {"smiles": "O=C(NC1CC1)c1ccc(S(=O)(=O)n2cncn2)cc1", "note": "[HHS-0101, 4-((1H-1,2,4-triazol-1-yl)sulfonyl)-N-cyclopropylbenzamide]", "values": [{"measurement": "liganded tyrosine site 9", "setting": "Q96AT1", "result": "HHS0101.Y (tyrosine sites that showed >80% reductions (SR >5) in probe labeling in cells treated with compounds (liganded sites))"}]}]}
